How the values were obtained:
Format in all cases: functional
[1] = system: A498; test: Growth inhibition of human A498 cells at 10 uM after 48 hrs by SRB assay; settings: A498, 48 h, read-out: GI
[2] = Growth inhibition of human OVCAR3 cells at 10 uM after 48 hrs by SRB assay; settings: OVCAR-3, 48 h, read-out: GI
[3] = Growth inhibition of human LOXIMVI cells at 10 uM after 48 hrs by SRB assay; settings: LOX IMVI, read-out: GI
[4] = system: KM12; test: Growth inhibition of human KM12 cells at 10 uM after 48 hrs by SRB assay; settings: KM12, 48 h, read-out: GI
[5] = system: NCI-H322M; test: Growth inhibition of human NCI-H322M cells at 10 uM after 48 hrs by SRB assay; settings: read-out: GI
[6] = system: SK-MEL-5; test: Growth inhibition of human SK-MEL-5 cells at 10 uM after 48 hrs by SRB assay; settings: SK-MEL-5, 48 h, read-out: GI
[7] = system: T47D; test: Growth inhibition of human T47D cells at 10 uM after 48 hrs by SRB assay; settings: read-out: GI
[8] = Growth inhibition of human Hs 578T cells at 10 uM after 48 hrs by SRB assay; settings: read-out: GI
[9] = system: MDA-MB-468; test: Growth inhibition of human MDA-MB-468 cells at 10 uM after 48 hrs by SRB assay; settings: MDA-MB-468, 48 h, read-out: GI
[10] = Growth inhibition of human UO31 cells at 10 uM after 48 hrs by SRB assay; settings: UO-31, 48 h, read-out: GI
[11] = Growth inhibition of human HCT116 cells at 10 uM after 48 hrs by SRB assay; settings: HCT-116, 48 h, read-out: GI
[12] = Growth inhibition of human PC3 cells at 10 uM after 48 hrs by SRB assay; settings: PC-3, 48 h, read-out: GI
[13] = system: HT-29; test: Growth inhibition of human HT-29 cells at 10 uM after 48 hrs by SRB assay; settings: HT-29, 48 h, read-out: GI
[14] = system: M14; test: Growth inhibition of human M14 cells at 10 uM after 48 hrs by SRB assay; settings: M14, 48 h, read-out: GI
[15] = Growth inhibition of human OVCAR5 cells at 10 uM after 48 hrs by SRB assay; settings: OVCAR-5, 48 h, read-out: GI
[16] = Growth inhibition of human SF539 cells at 10 uM after 48 hrs by SRB assay; settings: SF-539, 48 h, read-out: GI
[17] = Growth inhibition of human OVCAR4 cells at 10 uM after 48 hrs by SRB assay; settings: OVCAR-4, 48 h, read-out: GI
[18] = system: NCI-H226; test: Growth inhibition of human NCI-H226 cells at 10 uM after 48 hrs by SRB assay; settings: NCI-H226, 48 h, read-out: GI
[19] = system: SR; test: Growth inhibition of human SR cells at 10 uM after 48 hrs by SRB assay; settings: read-out: GI
[20] = Growth inhibition of human IGROV1 cells at 10 uM after 48 hrs by SRB assay; settings: IGROV-1, 48 h, read-out: GI
[21] = Growth inhibition of human HCT15 cells at 10 uM after 48 hrs by SRB assay; settings: HCT-15, 48 h, read-out: GI
[22] = system: ACHN; test: Growth inhibition of human ACHN cells at 10 uM after 48 hrs by SRB assay; settings: read-out: GI
[23] = system: NCI-H460; test: Growth inhibition of human NCI-H460 cells at 10 uM after 48 hrs by SRB assay; settings: NCI-H460, 48 h, read-out: GI
[24] = Growth inhibition of human RXF393 cells at 10 uM after 48 hrs by SRB assay; settings: RXF 393, 48 h, read-out: GI
[25] = system: SN12C; test: Growth inhibition of human SN12C cells at 10 uM after 48 hrs by SRB assay; settings: read-out: GI
[26] = system: EKVX; test: Growth inhibition of human EKVX cells at 10 uM after 48 hrs by SRB assay; settings: read-out: GI
[27] = Growth inhibition of human COLO205 cells at 10 uM after 48 hrs by SRB assay; settings: COLO 205, 48 h, read-out: GI
[28] = Growth inhibition of human HOP62 cells at 10 uM after 48 hrs by SRB assay; settings: HOP-62, 48 h, read-out: GI
[29] = Growth inhibition of human Caki1 cells at 10 uM after 48 hrs by SRB assay; settings: CAKI-1, 48 h, read-out: GI
[30] = system: NCI-H23; test: Growth inhibition of human NCI-H23 cells at 10 uM after 48 hrs by SRB assay; settings: NCI-H23, 48 h, read-out: GI
[31] = system: SK-MEL-28; test: Growth inhibition of human SK-MEL-28 cells at 10 uM after 48 hrs by SRB assay; settings: SK-MEL-28, 48 h, read-out: GI
[32] = Growth inhibition of human UACC62 cells at 10 uM after 48 hrs by SRB assay; settings: UACC-62, 48 h, read-out: GI
[33] = system: K562; test: Growth inhibition of human K562 cells at 10 uM after 48 hrs by SRB assay; settings: K562, 48 h, read-out: GI
[34] = system: NCI-H522; test: Growth inhibition of human NCI-H522 cells at 10 uM after 48 hrs by SRB assay; settings: NCI-H522, 48 h, read-out: GI
[35] = system: Malme-3M; test: Growth inhibition of human MALME-3M cells at 10 uM after 48 hrs by SRB assay; settings: read-out: GI
[36] = Growth inhibition of human HOP92 cells at 10 uM after 48 hrs by SRB assay; settings: HOP-92, 48 h, read-out: GI
[37] = system: 786-0; test: Growth inhibition of human 786-0 cells at 10 uM after 48 hrs by SRB assay; settings: 786-0, 48 h, read-out: GI
[38] = system: U-251; test: Growth inhibition of human U251 cells at 10 uM after 48 hrs by SRB assay; settings: U-251, 48 h, read-out: GI
[39] = Growth inhibition of human SKOV3 cells at 10 uM after 48 hrs by SRB assay; settings: SK-OV-3, 48 h, read-out: GI
[40] = system: MCF7; test: Growth inhibition of human MCF7 cells at 10 uM after 48 hrs by SRB assay; settings: MCF7, 48 h, read-out: GI
[41] = Growth inhibition of human DU145 cells at 10 uM after 48 hrs by SRB assay; settings: DU-145, 48 h, read-out: GI
[42] = Growth inhibition of human TK10 cells at 10 uM after 48 hrs by SRB assay; settings: TK-10, 48 h, read-out: GI
[43] = Growth inhibition of human HCC2998 cells at 10 uM after 48 hrs by SRB assay; settings: HCC 2998, 48 h, read-out: GI

Clc1ccc(Nc2nccc(Nc3ccc4[nH]ncc4c3)n2)cc1
inhibition of growth at 10 µM [1]: 61% | inhibition of growth at 10 µM [2]: 48% | inhibition of growth at 10 µM [3]: 55% | inhibition of growth at 10 µM [4]: 91% | inhibition of growth at 10 µM [5]: 25% | inhibition of growth at 10 µM [6]: 74% | inhibition of growth at 10 µM [7]: 70% | inhibition of growth at 10 µM [8]: 38% | inhibition of growth at 10 µM [9]: 66% | inhibition of growth at 10 µM [10]: 83% | inhibition of growth at 10 µM [11]: 61% | inhibition of growth at 10 µM [12]: 75% | inhibition of growth at 10 µM [13]: 83% | inhibition of growth at 10 µM [14]: 56% | inhibition of growth at 10 µM [15]: 35% | inhibition of growth at 10 µM [16]: 24% | inhibition of growth at 10 µM [17]: 51% | inhibition of growth at 10 µM [18]: 72% | inhibition of growth at 10 µM [19]: 97% | inhibition of growth at 10 µM [20]: 53% | inhibition of growth at 10 µM [21]: 60% | inhibition of growth at 10 µM [22]: 53% | inhibition of growth at 10 µM [23]: 59% | inhibition of growth at 10 µM [24]: 65% | inhibition of growth at 10 µM [25]: 48% | inhibition of growth at 10 µM [26]: 33% | inhibition of growth at 10 µM [27]: 58% | inhibition of growth at 10 µM [28]: 34% | inhibition of growth at 10 µM [29]: 48% | inhibition of growth at 10 µM [30]: 54% | inhibition of growth at 10 µM [31]: 20% | inhibition of growth at 10 µM [32]: 66% | inhibition of growth at 10 µM [33]: 108% | inhibition of growth at 10 µM [34]: 79% | inhibition of growth at 10 µM [35]: 12% | inhibition of growth at 10 µM [36]: 101% | inhibition of growth at 10 µM [37]: 43% | inhibition of growth at 10 µM [38]: 41% | inhibition of growth at 10 µM [39]: 12% | inhibition of growth at 10 µM [40]: 75% | inhibition of growth at 10 µM [41]: 50% | inhibition of growth at 10 µM [42]: 38% | inhibition of growth at 10 µM [43]: 6%
